Measured values: article PMC12463120, “Phenylalanine‐Based DNA‐Encoded Chemical Libraries for the Discovery of Potent and Selective Small Organic Ligands Against Markers of Cancer and Immune Cells” (Advanced Science, 2025)

Tests used:
NKG2D-Fc [1] = target: T1, NKG2D-Fc (Homo sapiens, UniProt P26718); test: Size-exclusion chromatography co-elution with NKG2D-Fc; type: binding
T1 construct: the extracellular domain of NKG2D was fused with an IgG Fc fragment; made in house; host or cells: CHO cells
T1 sequence (P26718 73-216 limits assumed): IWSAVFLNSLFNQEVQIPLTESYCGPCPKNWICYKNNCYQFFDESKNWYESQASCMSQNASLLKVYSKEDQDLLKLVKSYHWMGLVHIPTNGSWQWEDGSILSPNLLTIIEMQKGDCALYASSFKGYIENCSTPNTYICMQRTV

NKG2D-Fc [2] = target: T1, NKG2D-Fc; test: Flow cytometry on streptavidin sepharose beads coated with NKG2D-Fc; type: binding; conditions: 300 nM
Experimental: HT1080.hPSMA and PC3.hACP3 cell lines were generated by lentiviral transduction on wild type cells (HT1080.wt and PC3.wt), according to published procedures9. For long-term storage, cell lines were maintained in liquid nitrogen. Prior to in vitro and in vivo experiments, cells were cultured in DMEM (PC3.wt, PC3.hACP3, HT1080.wt, and HT1080.hPSMA) or RPMI medium (SK-RC-52) (medium provided by Invitrogen) supplemented with FCS (10%, Invitrogen) and antibiotic-antimycotic (1%, AA, Invitrogen) at 37 °C and 5% CO2. For passaging, cells were detached using Trypsin-EDTA 0.05% (Invitrogen) when reaching 90% confluency and re-seeded at a dilution of 1:3 (PC3.hACP3 and PC3.wt) […]
2.17 Flow cytometry experiments on cells
Cancer cells were detached with an Accutase® cell detachment solution, resuspended in a standard culture medium, and transferred to falcon tubes. Cells were counted and centrifuged at 400 rcf for 3 min. […] Data were acquired halting the measurement at 10´ 000 events on a Cytoflex S flow cytometer (Beckman Coulter), and analyzed using the FlowJo software v10 (BD Biosciences). […]
plate (20 µL/well). […] Data were acquired halting the measurement at 10’000 events on a Cytoflex S flow cytometer (Beckman Coulter) and analyzed using the FlowJo software v10 (BD Biosciences). […]

SMILES: CC(C)Oc1ccc(-c2cccc(C[C@H](NC(=O)c3ccccc3-c3ccc(C(F)(F)F)cc3)C(=O)N[C@@H](CCCCNC(=S)Nc3ccc4c(c3)C(=O)OC43c4ccc(O)cc4Oc4cc(O)ccc43)C(=O)O)c2)c(F)c1 [compound 30]
- co-elution with NKG2D-Fc in size-exclusion chromatography (NKG2D-Fc [1]): kinetically stable complex
- binding on NKG2D-Fc-coated streptavidin sepharose beads by flow cytometry (NKG2D-Fc [2]): significant shift in binding
